Data: patent US8952181B2, “Organic semiconductive material precursor containing dithienobenzodithiophene derivative, ink, insulating member, charge-transporting member, and organic electronic device” (Ricoh Company, Ltd., priority 2010, dated 2015)

Columns and labels:
[1] = Solubility in organic solvents; type: physicochemical
Method: The solubility test of Example Compound 1-2 of Example 1 was performed by dissolving Example Compound 1-2 respectively in THF, chloroform, toluene, xylene, mesitylene, diethyl ether, dichloromethane, and ethanol. Example Compound 1-2 was not dissolved in any of the above-described solvents, and cannot form a film by various printing methods.

[2] = TG-DTA thermal analysis (elimination of X-Y on heating); type: physicochemical; details: temperature increase rate 5° C./min
Method: A TG-DTA measurement with respect to Example Compound 1 was performed using TG/DTA200 (manufactured by Seiko Instruments is Inc.). […] This was identical with the melting point of the following Example Compound 1-2 described in Japanese Patent Application Laid-Open (JP-A) No. 2011-44686.

[3] = solvent such as THF, toluene, chloroform, xylene, diethyl ether, or dichloromethane

| SMILES | solubility in solvent [1, 3] | mass reduction, found value [2] [%] | further results |
| --- | --- | --- | --- |
| CCCCCC(=O)OC(Cc1ccccc1)c1cc2sc3cc4c(cc3c2s1)sc1cc(C(Cc2ccccc2)OC(=O)CCCCC)sc14 (centres unmarked) [Example Compound 2] | easily dissolved | 31.4 | – |
| CCCCCCc1ccc(CC(OC(=O)C(C)=O)c2cc3sc4cc5c(cc4c3s2)sc2cc(C(Cc3ccc(CCCCCC)cc3)OC(=O)C(C)=O)sc25)cc1 (centres unmarked) [Example Compound 16] | easily dissolved | 21.1 | – |
| O=C(CC(F)(F)F)OC(Cc1ccccc1)c1cc2sc3cc4c(cc3c2s1)sc1cc(C(Cc2ccccc2)OC(=O)CC(F)(F)F)sc14 (centres unmarked) [Example Compound 3] | – | 32.6 | – |
| C(=C\c1cc2sc3cc4c(cc3c2s1)sc1cc(/C=C/c2ccccc2)sc14)/c1ccccc1 [Example Compound 1-2] | – | – | solubility test ([1]; THF, chloroform, toluene, xylene, mesitylene, diethyl ether, dichloromethane, and ethanol): not dissolved |
| COC(Cc1ccccc1)c1cc2sc3cc4c(cc3c2s1)sc1cc(C(Cc2ccccc2)OC)sc14 (centres unmarked) [Example Compound 12] | easily dissolved | 13.9 | – |
| CC(C)(C)C(=O)OC(Cc1ccccc1)c1cc2sc3cc4c(cc3c2s1)sc1cc(C(Cc2ccccc2)OC(=O)C(C)(C)C)sc14 (centres unmarked) [Example Compound 1] | easily dissolved | 29.7 | – |
| CCCCCCc1ccc(CC(O)c2cc3sc4cc5c(cc4c3s2)sc2cc(C(O)Cc3ccc(CCCCCC)cc3)sc25)cc1 (centres unmarked) [Example Compound 7] | – | 4.0 | – |
| O=C(CCC(F)(F)F)OC(Cc1ccccc1)c1cc2sc3cc4c(cc3c2s1)sc1cc(C(Cc2ccccc2)OC(=O)CCC(F)(F)F)sc14 (centres unmarked) [Example Compound 15] | easily dissolved | 34.3 | – |
| O=C(CCl)OC(Cc1ccccc1)c1cc2sc3cc4c(cc3c2s1)sc1cc(C(Cc2ccccc2)OC(=O)CCl)sc14 (centres unmarked) [Example Compound 14] | easily dissolved | 26.6 | – |
| CCCCCC(=O)OC(Cc1ccc(C)cc1)c1cc2sc3cc4c(cc3c2s1)sc1cc(C(Cc2ccc(C)cc2)OC(=O)CCCCC)sc14 (centres unmarked) [Example Compound 4] | – | 30.0 | – |
| CSC(=S)OC(Cc1ccc(C)cc1)c1cc2sc3cc4c(cc3c2s1)sc1cc(C(Cc2ccc(C)cc2)OC(=S)SC)sc14 (centres unmarked) [Example Compound 23] | – | – | solubility in solvent ([1]; solvent such as THF, toluene, chloroform, xylene, or dichloromethane): easily dissolved |
| Cc1ccc(-c2ccc(CC(O)c3cc4sc5cc6c(cc5c4s3)sc3cc(C(O)Cc4ccc(-c5ccc(C)cc5)cc4)sc36)cc2)cc1 (centres unmarked) [Example Compound 17] | – | 4.0 | solubility in solvent ([1]; solvent such as THF or toluene): easily dissolved |
| CCOC(=O)CC(=O)OC(Cc1ccccc1)c1cc2sc3cc4c(cc3c2s1)sc1cc(C(Cc2ccccc2)OC(=O)CC(=O)OCC)sc14 (centres unmarked) [Example Compound 13] | easily dissolved | 35.5 | – |
| CCCCCCc1ccc(CC(OC(C)=O)c2cc3sc4cc5c(cc4c3s2)sc2cc(C(Cc3ccc(CCCCCC)cc3)OC(C)=O)sc25)cc1 (centres unmarked) [Example Compound 6] | – | 15.1 | – |
| CC(=O)CC(=O)OC(Cc1ccccc1)c1cc2sc3cc4c(cc3c2s1)sc1cc(C(Cc2ccccc2)OC(=O)CC(C)=O)sc14 (centres unmarked) [Example Compound 24] | easily dissolved | 25.7 | – |
| CCCCCC(=O)OC(Cc1ccc(-c2ccc(C)cc2)cc1)c1cc2sc3cc4c(cc3c2s1)sc1cc(C(Cc2ccc(-c3ccc(C)cc3)cc2)OC(=O)CCCCC)sc14 (centres unmarked) [Example Compound 18] | easily dissolved | 24.2 | – |
| CCCCCOC(=O)OC(Cc1ccccc1)c1cc2sc3cc4c(cc3c2s1)sc1cc(C(Cc2ccccc2)OC(=O)OCCCCC)sc14 (centres unmarked) [Example Compound 11] | easily dissolved | 33.3 | – |
| CC(=O)OC(Cc1ccc(C)cc1)c1cc2sc3cc4c(cc3c2s1)sc1cc(C(Cc2ccc(C)cc2)OC(C)=O)sc14 (centres unmarked) [Example Compound 5] | – | 17.9 | – |
